Source: patent publication US20260355199A1, “COMPOSITIONS AND METHODS FOR TREATING OR PREVENTING NONALCOHOLIC STEATOHEPATITIS (NASH), ANOREXIA, DEPRESSION, ENDOMETRIOSIS, AND OTHER DISEASES OR DISORDERS” (priority 2022, published 2026)
“Also recorded” adds a separate entry of the source.

Columns and labels:
Agrp, Npy and Slc32a1 [1] = test: Agrp, Npy and Slc32a1 mRNA in GT1-7 cells; format: cell-based, mouse; conditions: 10 μM, 48 h
Source text: (§1) Mouse GT1-7 hypothalamic neuronal cell line (Sigma-Aldrich, SCC116) and human SH-SY5Y neuroblastoma cell line (Sigma Aldrich, 94030304) were purchased and cultured according to the manufacturers' instructions. Purified Ad-TET3 adenovirus (Ad-FLAG.h-TET3, ADV-225322, Vector Biolabs) expressing human TET3 from a CMV promoter and Ad-GFP control adenovirus (1060, Vector Biolabs) were purchased.
(§2) For Bobcat339 treatment (FIG. 15A and FIG. 15B), GT1-7 cells grown in 24-well plates at 2×10^5 cells/well were incubated with vehicle or Bobcat339 at a final concentration of 10 μM for 6 h, followed by RNA and protein extractions. […] Protein and RNA were isolated 48 h later and analyzed.
(§3) Total RNAs were extracted from neuronal cells or homogenized hypothalamic arcuate nucleus tissue samples using PureLink RNA Mini Kit (Ambion, 12183025). cDNA was synthesized using PrimeScript RT Reagent Kit in a 20 μl reaction containing 0.5-1 μg of total RNA. Real-time quantitative PCR was performed in a 15 μl reaction containing 0.5-1 μl of cDNA using SsoAdvanced Universal SYBR Green Supermix in a Bio-Rad iCycler. […]

AGRP, NPY and SLC32A1 [2] = test: AGRP, NPY and SLC32A1 mRNA in SH-SY5Y cells; format: cell-based, human; conditions: 10 μM, 48 h
Source text: as §1, §2, §3

[3] = tested on: Bobcat339-treated ABA mice; test: Behavioral tests (OFT, TST, FST); format: in vivo, mouse
Source text: It has been reported that AgRP neuron-specific TET3 knockdown reduces stress-like behaviors with decreased levels of circulating corticosterone. […] The open field test (OFT) has been used to assess general locomotor activity and anxiety; the tail suspension test (TST) and forced swim test (FST) have been used to evaluate behavioral despair and also to test the efficacy of new antidepressant compounds. All three tests (OFT, TST, and FST) have been used in previous studies to assess behavioral impacts of AgRP neurons in mice (Miletta, M. C. et al., 2020, Nature Metabolism, 2:1204-1211).
For all behavioral tests, mice were transferred to the testing room 1 h prior to testing for acclimation to the environment. All behavioral tests were performed in the afternoon (14:00-16:00). All behavioral apparatus was wiped with 70% ethanol prior to each trial and between trials. The open field (OF) apparatus consisted of a 56×56 cm open arena with 30 cm high walls. The mouse was placed into the center of the arena and allowed to move freely for 10 min with the activity being recorded and tracked by LimeLight 3 software (Actimetrics, Coulbourn Instruments). The software recorded and analyzed the distance and time traveled in the central (28×28 cm central area of the OF) and outer areas of the arena. The tail suspension test (TST) and the forced swim test (FST) lasted for 6 min and the total amount of immobility time during the final 4 min was measured for each animal.

let-7a = let-7a miRNA in endometriosis, NASH liver and lung tumor tissues; format: in vivo, mouse; conditions: lung cancer tissues
Description: For let-7a qPCR, 10 ng of total RNA was reverse transcribed to cDNA in a reaction volume of 10 μl using miRCURY LNA RT Kit (QIAGEN, 339340). Quantitative real-time PCR reactions were carried out using miRCURY LNA SYBR Green PCR Kit (QIAGEN, 339346) and a let-7a-specific primer (Has-Let-7a-5p miRCURY LNA miRNA PCR Assay, QIAGEN, 339306/YP00205727) in a Bio-Rad iCycler. Gene expression levels were normalized against U6 (U6 snRNA v2 miRURY LNA miRNA PCR Assay, QIAGEN, 339306/YPO2119464, QIAGEN).

TET2 = conditions: cited from earlier work
TET3 = conditions: Lv et al., 2023; cited from earlier work
Cas9+ mice = test: Post-fast refeeding study with leptin; format: in vivo, mouse; conditions: leptin 5 mg/kg i.p.
Description: To assess leptin effects on suppression of hunger-induced appetite, female Cas9+ mice injected with AAV or AAV-sgTet3 bilaterally into the ARC were fasted overnight for 22 h. On the second day, mouse leptin (L3772-1MG, Sigma Aldrich) was administrated at 5 mg/kg intraperitoneally at 10:00 and pre-weighed food was placed in the cage and monitored for the following 24 h. For ChIP studies, Cas9+ mice injected with AAV or AAVsgTet3 bilaterally into the ARC were fasted overnight for 22 h. On the second day, saline or leptin (5 mg/kg) was administrated intraperitoneally at 10:00. Two hours later, ARCs were isolated for ChIP-qPCR analysis. To examine leptin-induced protein-protein interactions, Cas9+ mice were fasted overnight for 22 h. On the second day, leptin was administrated at 5 mg/kg intraperitoneally at 10:00, and ARCs were isolated 2 h later, followed by co-IP studies.

| Compound | Agrp, Npy and Slc32a1 mRNA levels (Agrp, Npy and Slc32a1 [1]; with TET3-expressing adenovirus (Ad-TET3)) | Agrp, Npy and Slc32a1 mRNA levels (Agrp, Npy and Slc32a1 [1]; without exogenous TET3) | AGRP, NPY and SLC32A1 mRNA levels (AGRP, NPY and SLC32A1 [2]) | FST immobility time ([3]; forced swim test) | OFT time spent in the center zone ([3]; open field test) | OFT total distance travelled ([3]; open field test) | TST immobility time ([3]; tail suspension test) | let-7a miRNA levels in disease tissues (let-7a) | inhibitory activity against TET2 (TET2; in the absence of contaminating copper (II)) | inhibition of enzymatic activity of TET2 (TET2; initially reported) | minimal effective concentration (TET3) [µM] | hunger-induced appetite (Cas9+ mice; AAV control mice) | hunger-induced appetite (Cas9+ mice; TET3 knockdown (AAV-sgTet3) mice) |
| --- | --- | --- | --- | --- | --- | --- | --- | --- | --- | --- | --- | --- | --- |
| Nc1nc(=O)n(-c2cccc(-c3ccccc3)c2)cc1Cl [Bobcat339, 4-Amino-1-[1,1′-biphenyl]-3-yl-5-chloro-2(1H)-pyrimidinone] | not seen when the level of TET3 protein was restored; also recorded: not seen when TET3 was overexpressed | increased in the mRNA levels of both Agrp and Npy; also recorded: increases in the mRNA levels of Agrp, Npy and Slc32a1; also recorded: significant increases in the Agrp/Nyp mRNAs | significant increases in Agrp/NPY mRNAs | spent less immobility time | increased time spent in the center zone | no differences in the total distance travelled | spent less immobility time | increased | negligible inhibitory activity | inhibit the enzymatic activity | 10 |  |  |
| leptin: adipose hormone; mouse leptin L3772-1MG or human leptin L4146-1MG, Sigma Aldrich |  |  |  |  |  |  |  |  |  |  |  | suppressed hunger-induced appetite in control mice | failed to do so in TET3 knockdown animals |
